Experimental data reported in patent publication US4476120A, “Thiolic derivatives of erythromycin having therapeutic activity, and pharmaceutical compositions containing them” (Sigma Tau Indistrie Farmaceutiche Riunites, p.A, priority 1982, dated 1984).
In brackets after ≈: the same amount, converted by molar mass.

What was measured:
Staph. albus SS 03 = assay type: cell-based; settings: Brain Heart Infusion, estolate and RV11-RV15 previously hydrolized, unit assumed
Staph. albus SS 04 = assay type: cell-based; settings: Brain Heart Infusion, estolate and RV11-RV15 previously hydrolized, unit assumed
Staph. aureus SS 07 [1] = assay type: cell-based; settings: Brain Heart Infusion, estolate and RV11-RV15 previously hydrolized, unit assumed
Staph. aureus SS 08 = assay type: cell-based; settings: Brain Heart Infusion, estolate and RV11-RV15 previously hydrolized, unit assumed
Staph. aureus SS 09 = assay type: cell-based; settings: Brain Heart Infusion, estolate and RV11-RV15 previously hydrolized, unit assumed
Staph. aureus SS 10 = assay type: cell-based; settings: Brain Heart Infusion, estolate and RV11-RV15 previously hydrolized, unit assumed
[2] = test system: Strept. haemolyticus SS 17; assay type: cell-based; settings: Brain Heart Infusion, estolate and RV11-RV15 previously hydrolized, unit assumed
[3] = test system: Strept. haemolyticus SS 18; assay type: cell-based; settings: Brain Heart Infusion, estolate and RV11-RV15 previously hydrolized, unit assumed
Strept. faecalis SS 19 = assay type: cell-based; settings: Brain Heart Infusion, estolate and RV11-RV15 previously hydrolized, unit assumed
S. lutea ATCC 9341 = assay type: cell-based; settings: Brain Heart Infusion, estolate and RV11-RV15 previously hydrolized, unit assumed
B. subtilis ATCC 6633 = assay type: cell-based; settings: Brain Heart Infusion, estolate and RV11-RV15 previously hydrolized, unit assumed
B. subtilis SS 127 = assay type: cell-based; settings: Brain Heart Infusion, estolate and RV11-RV15 previously hydrolized, unit assumed
B. cereus ATCC 11778 = assay type: cell-based; settings: Brain Heart Infusion, estolate and RV11-RV15 previously hydrolized, unit assumed
B. anthranis SS 08 = assay type: cell-based; settings: Brain Heart Infusion, estolate and RV11-RV15 previously hydrolized, unit assumed
Br. melitensis SS 19 = assay type: cell-based; settings: unit assumed
Br. abortus SS 7 = assay type: cell-based; settings: Brain Heart Infusion, estolate and RV11-RV15 previously hydrolized, unit assumed
Citrobacter SS 05 = assay type: cell-based; settings: Brain Heart Infusion, estolate and RV11-RV15 previously hydrolized, unit assumed
Citrobacter SS 09 = assay type: cell-based; settings: Brain Heart Infusion, estolate and RV11-RV15 previously hydrolized, unit assumed
S. infantis SS 08 = assay type: cell-based; settings: Brain Heart Infusion, estolate and RV11-RV15 previously hydrolized, unit assumed
S. heidelberg SS 18 = assay type: cell-based; settings: Brain Heart Infusion, estolate and RV11-RV15 previously hydrolized, unit assumed
E. cloacae SS 07 = assay type: cell-based; settings: Brain Heart Infusion, estolate and RV11-RV15 previously hydrolized, unit assumed
Ps. aeruginosa SS 10 = assay type: cell-based; settings: Brain Heart Infusion, estolate and RV11-RV15 previously hydrolized, unit assumed
E. coli SS 04 = assay type: cell-based; settings: Brain Heart Infusion, estolate and RV11-RV15 previously hydrolized, unit assumed
E. coli SS 05 = assay type: cell-based; settings: Brain Heart Infusion, estolate and RV11-RV15 previously hydrolized, unit assumed
E. coli SS 06 = assay type: cell-based; settings: Brain Heart Infusion, estolate and RV11-RV15 previously hydrolized, unit assumed
Pr. mirabilis SS 09 = assay type: cell-based; settings: Brain Heart Infusion, estolate and RV11-RV15 previously hydrolized, unit assumed
Kl. aerogenes SS 71 = assay type: cell-based; settings: Brain Heart Infusion, estolate and RV11-RV15 previously hydrolized, unit assumed
H. tubercolosis SS 03 = assay type: cell-based; settings: Brain Heart Infusion, estolate and RV11-RV15 previously hydrolized, unit assumed
Source text: (§1) In the following table I the MIC/ml values are indicated corresponding to the lowest concentration capable of inducing a complete inhibition of the bacterial development.

Kl. pneumoniae SS 04 = assay type: cell-based; settings: Brain Heart Infusion, estolate and RV11-RV15 previously hydrolized, unit assumed
Source text: as §1

Sr. marcescens SS 03 = assay type: cell-based; settings: Brain Heart Infusion, estolate and RV11-RV15 previously hydrolized, unit assumed
C. diphtheriae SS 19 = assay type: cell-based; settings: Brain Heart Infusion, estolate and RV11-RV15 previously hydrolized, unit assumed
D. pneumoniae SS 23 [4] = assay type: cell-based; settings: Brain Heart Infusion, estolate and RV11-RV15 previously hydrolized, unit assumed
N. gonorreae SS 27 = assay type: cell-based; settings: Brain Heart Infusion, estolate and RV11-RV15 previously hydrolized, unit assumed
N. meningitidis SS 04 = assay type: cell-based; settings: Brain Heart Infusion, estolate and RV11-RV15 previously hydrolized, unit assumed
H. influentiae SS 02 = assay type: cell-based; settings: Brain Heart Infusion, estolate and RV11-RV15 previously hydrolized, unit assumed
Cl. tetani SS 17 = assay type: cell-based; settings: Brain Heart Infusion, estolate and RV11-RV15 previously hydrolized, unit assumed
B. anthranis SS 09 = assay type: cell-based; settings: B. anthranis SS 09 (14 bis); Brain Heart Infusion; estolate and RV11-RV15 previously hydrolized; unit assumed
Acute toxicity = assay type: in vivo; settings: mortality 10 days after treatment, mice
Description: The acute toxicity was assessed in Swiss white mice by oral and intravenous route. The LD50 values have been calculated by the methods of Probits, starting from the mortality recorded 10 days after the treatment.

Staph. aureus SS 07 [5] = assay: Experimental infection induced by Staph. aureus SS 07; assay type: in vivo, Swiss white mice; settings: Staph. aureus SS 07, mg/kg of erythromycin, survival after 7 days
Description: (§2) Swiss white mice of 20 g body weight were used, infected by parenteral administration of lethal amounts of pathogenic […] of Staph. aureus SS 07 and D. pneumoniae SS 23.
(§3) The antibiotics were administered at the time of injecting the infecting germ and 6 and 24 hours later. On the basis of the survival after 7 days, the ED50 values were determined, as reported in the following table II and III, wherein the reliability limits are indicated in brackets.

D. pneumoniae SS 23 [6] = assay: Experimental infection induced by D. pneumoniae SS 23; assay type: in vivo, Swiss white mice; settings: D. pneumoniae SS 23, mg/kg of erythromycin, survival after 7 days
Description: as §2, §3

[7] = Mucolytic activity: obstruction of the bronchial tract after SO2 inhalation; assay type: in vivo, Sprague Dawley male rats; settings: i.m., 250 mg/kg; SO2, 15 days
[8] = Histological examination of bronchi after SO2 inhalation; assay type: in vivo, Sprague Dawley male rats; settings: i.m., 250 mg/kg

CC[C@H]1OC(=O)[C@H](C)[C@@H](O[C@H]2C[C@@](C)(OC)[C@@H](O)[C@H](C)O2)[C@H](C)[C@@H](O[C@@H]2O[C@H](C)C[C@H](N(C)C)[C@H]2O)[C@](C)(O)C[C@@H](C)C(=O)[C@H](C)[C@@H](O)[C@]1(C)O [RV01, erythromycin alpha-mercaptosuccinate]
MIC (Staph. albus SS 03): 0.1 µg/mL (≈ 0.136 µM) | MIC (Staph. albus SS 04): 0.05 µg/mL (≈ 0.0681 µM) | MIC (Staph. aureus SS 07 [1]): 0.05 µg/mL (≈ 0.0681 µM) | MIC (Staph. aureus SS 08): 0.025 µg/mL (≈ 0.0341 µM) | MIC (Staph. aureus SS 09): 0.1 µg/mL (≈ 0.136 µM) | MIC (Staph. aureus SS 10): 0.05 µg/mL (≈ 0.0681 µM) | MIC [2]: 3 µg/mL (≈ 4.09 µM) | MIC [3]: 1.5 µg/mL (≈ 2.04 µM) | MIC (Strept. faecalis SS 19): 0.1 µg/mL (≈ 0.136 µM) | MIC (S. lutea ATCC 9341): 0.01 µg/mL (≈ 0.0136 µM) | MIC (B. subtilis ATCC 6633): 0.01 µg/mL (≈ 0.0136 µM) | MIC (B. subtilis SS 127): 0.01 µg/mL (≈ 0.0136 µM) | MIC (B. cereus ATCC 11778): 0.4 µg/mL (≈ 0.545 µM) | MIC (B. anthranis SS 08): 0.4 µg/mL (≈ 0.545 µM) | MIC (Br. melitensis SS 19): 3 µg/mL (≈ 4.09 µM) | MIC (Br. abortus SS 7): 6 µg/mL (≈ 8.18 µM) | MIC (Citrobacter SS 05): > 200 µg/mL | MIC (Citrobacter SS 09): > 200 µg/mL | MIC (S. infantis SS 08): 100 µg/mL (≈ 136 µM) | MIC (S. heidelberg SS 18): 100 µg/mL (≈ 136 µM) | MIC (E. cloacae SS 07): > 200 µg/mL | MIC (Ps. aeruginosa SS 10): 200 µg/mL (≈ 273 µM) | MIC (E. coli SS 04): 50 µg/mL (≈ 68.1 µM) | MIC (E. coli SS 05): 50 µg/mL (≈ 68.1 µM) | MIC (E. coli SS 06): 100 µg/mL (≈ 136 µM) | MIC (Pr. mirabilis SS 09): > 200 µg/mL | MIC (Kl. aerogenes SS 71): 100 µg/mL (≈ 136 µM) | MIC (H. tubercolosis SS 03): 50 µg/mL (≈ 68.1 µM) | MIC (Kl. pneumoniae SS 04): 100 µg/mL (≈ 136 µM) | MIC (Sr. marcescens SS 03): 200 µg/mL (≈ 273 µM) | MIC (C. diphtheriae SS 19): 0.025 µg/mL (≈ 0.0341 µM) | MIC (D. pneumoniae SS 23 [4]): 0.05 µg/mL (≈ 0.0681 µM) | MIC (N. gonorreae SS 27): 0.8 µg/mL (≈ 1.09 µM) | MIC (N. meningitidis SS 04): 0.8 µg/mL (≈ 1.09 µM) | MIC (H. influentiae SS 02): 1.5 µg/mL (≈ 2.04 µM) | MIC (Cl. tetani SS 17): 0.2 µg/mL (≈ 0.273 µM) | MIC (B. anthranis SS 09): 0.4 µg/mL (≈ 0.545 µM) | LD50 (reliability limits) (Acute toxicity; i.v., 14400 min): 458.49 (518.06-405.77) mg.kg | LD50 (reliability limits) (Acute toxicity; os): > 3000 mg·kg | ED50 (Staph. aureus SS 07 [5]; Staphylococcus aureus, SS07, in Mus musculus, sc, 168 h, s.c., read-out: ED50 (reliability limits)): 0.95 mg/kg | ED50 (reliability limits) (Staph. aureus SS 07 [5]; os, 10080 min): 2.36 (2.68-2.08) mg/kg | ED50 (D. pneumoniae SS 23 [6]; Streptococcus pneumoniae, SS23, in Mus musculus, sc, 168 h, s.c., read-out: ED50 (reliability limits)): 52.7 mg/kg | ED50 (reliability limits) (D. pneumoniae SS 23 [6]; os, 10080 min): 108.98 (137.60-86.32) mg/kg | Partial obstruction (% incidence) [7]: 13.33% | Total obstruction, compact plug (% incidence) [7]: 26.66% | Total obstruction, nodular mass (% incidence) [7]: 6.66% | Total obstruction, pimply mass (% incidence) [7]: 13.33% | histological appearance of non obstructed bronchi ([8]; free non obstructed): practically normal appearance | histological appearance of obstructed bronchial tract ([8]; obstructed): an appearance like that of the control animals
